From paper PMC2651907, “ARC (NSC 188491) has identical activity to Sangivamycin (NSC 65346) including inhibition of both P-TEFb and PKC” (2009)

Target: T1, P-TEFb (cdk9/cyclin T1) (Homo sapiens, UniProt P50750)
T1 construct: recombinant P-TEFb (cdk9/cyclin T1); with cyclin T1
Experiment: […]-ATP kinase assay with PDKtide, recombinant P-TEFb
Assay type: biochemical

T1 sequence (P50750 whole entry): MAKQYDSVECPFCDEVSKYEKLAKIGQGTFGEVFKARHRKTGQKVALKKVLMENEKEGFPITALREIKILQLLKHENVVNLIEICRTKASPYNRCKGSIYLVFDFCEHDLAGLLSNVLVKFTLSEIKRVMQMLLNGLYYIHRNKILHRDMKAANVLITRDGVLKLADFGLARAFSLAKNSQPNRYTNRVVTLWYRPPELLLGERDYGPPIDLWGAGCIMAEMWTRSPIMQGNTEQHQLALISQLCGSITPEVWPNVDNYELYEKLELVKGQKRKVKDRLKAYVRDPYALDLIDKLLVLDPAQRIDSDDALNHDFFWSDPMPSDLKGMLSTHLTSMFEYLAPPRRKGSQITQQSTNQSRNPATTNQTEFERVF
T1 sequence (O60563 whole entry partner): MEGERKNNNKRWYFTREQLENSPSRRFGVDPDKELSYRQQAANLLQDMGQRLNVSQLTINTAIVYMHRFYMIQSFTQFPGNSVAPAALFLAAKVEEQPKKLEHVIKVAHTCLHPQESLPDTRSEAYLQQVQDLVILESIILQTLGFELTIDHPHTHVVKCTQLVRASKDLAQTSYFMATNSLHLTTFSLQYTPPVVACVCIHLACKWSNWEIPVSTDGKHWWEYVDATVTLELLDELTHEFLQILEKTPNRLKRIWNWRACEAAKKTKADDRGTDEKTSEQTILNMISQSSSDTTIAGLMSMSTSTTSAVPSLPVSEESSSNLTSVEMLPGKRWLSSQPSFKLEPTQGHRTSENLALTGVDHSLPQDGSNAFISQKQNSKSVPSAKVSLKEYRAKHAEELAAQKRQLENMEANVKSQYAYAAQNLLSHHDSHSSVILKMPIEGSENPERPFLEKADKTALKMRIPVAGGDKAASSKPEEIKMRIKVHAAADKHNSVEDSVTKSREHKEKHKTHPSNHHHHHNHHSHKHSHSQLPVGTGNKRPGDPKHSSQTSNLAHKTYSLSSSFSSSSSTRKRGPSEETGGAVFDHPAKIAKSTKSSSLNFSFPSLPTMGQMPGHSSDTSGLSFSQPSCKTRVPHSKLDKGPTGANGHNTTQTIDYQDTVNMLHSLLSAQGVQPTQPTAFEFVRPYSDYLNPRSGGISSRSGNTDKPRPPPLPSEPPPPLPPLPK

Row | Compound | 32P-ATP kinase assay with PDKtide, recombinant P-TEFb
1 | NNc1c(C(N)=O)c2c(N)ncnc2n1[C@@H]1O[C@H](CO)[C@@H](O)[C@H]1O [ARC, 4-amino-6-hydrazino-7-β-d-ribofuranosyl-7H-pyrrolo-(2,3-d)-pyrimidine-5-carboxamide] | ARC sangivamycin and toyocamycin prevent recombinant P-TEFb from phosphorylating substrate peptide (Fig. 4E)
2 | NC(=O)c1cn([C@@H]2O[C@H](CO)[C@@H](O)[C@H]2O)c2ncnc(N)c12 [sangivamycin] | ARC sangivamycin and toyocamycin prevent recombinant P-TEFb from phosphorylating substrate peptide (Fig. 4E)
3 | N#Cc1cn([C@@H]2O[C@H](CO)[C@@H](O)[C@H]2O)c2ncnc(N)c12 [toyocamycin] | ARC sangivamycin and toyocamycin prevent recombinant P-TEFb from phosphorylating substrate peptide (Fig. 4E)
